# Patent EP0880540B1, “17-BETA-CYCLOPROPYL(AMINO/OXY) 4-AZA STEROIDS AS ACTIVE INHIBITORS OF TESTOSTERONE 5-ALPHA-REDUCTASE AND C17-20-LYASE” (Aventis Pharmaceuticals Inc., priority 1996, dated 1997)
# Molecular target: T1, Rat testicular C17,20 lyase (Rattus norvegicus, UniProt P11715)
# T1 construct: testes were excised, capsules were removed, and the tissue was weighed; from tissue; host or cells: testes of male Copenhagen rats (Harlan Laboratories), 10,000 x G supernatant of homogenate
# T1 sequence (P11715 1-507): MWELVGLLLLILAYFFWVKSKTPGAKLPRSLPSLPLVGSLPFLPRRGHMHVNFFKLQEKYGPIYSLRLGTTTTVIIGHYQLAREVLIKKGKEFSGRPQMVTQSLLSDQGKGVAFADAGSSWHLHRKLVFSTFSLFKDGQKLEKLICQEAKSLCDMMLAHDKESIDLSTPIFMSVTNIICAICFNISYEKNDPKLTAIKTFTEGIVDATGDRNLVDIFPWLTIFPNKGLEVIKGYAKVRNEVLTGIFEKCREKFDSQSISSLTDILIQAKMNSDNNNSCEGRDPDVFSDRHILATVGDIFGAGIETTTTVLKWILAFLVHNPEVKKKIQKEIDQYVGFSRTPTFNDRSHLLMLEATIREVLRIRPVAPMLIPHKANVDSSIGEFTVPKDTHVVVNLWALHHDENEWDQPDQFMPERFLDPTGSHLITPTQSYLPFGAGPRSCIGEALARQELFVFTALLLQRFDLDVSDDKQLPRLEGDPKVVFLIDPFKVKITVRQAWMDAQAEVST
# Assay: Ex vivo inhibition of C17,20 lyase in rat testes after dosing
# Set-up: species or system Male Copenhagen rats
# Description: Ex vivo inhibition of C17,20 lyase: MDL 103,432 was tested for ex vivo inhibition of rat and nude mouse testes lyase. Male Copenhagen rats and male athymic nude mice obtained from Harlan Laboratories, Indianapolis, IN, were divided into groups of 5 to 6 based on weight. Average weight was 100-140 g each for rats and 18-35 g each for the mice. Prior to oral dosing, animals were fasted overnight. Test compound was prepared by micronization in a lecithin vehicle using a glass Teflon® pestle-type homogenizer. The compound was brought to volume using lecithin so as to administer 0.5 mL per 100 g animal. Rats and nude mice were given vehicle only (controls) or vehicle plus test compounds peros. Rats were also given the compound in lecithin or lecithin alone subcutaneously. Each group consisted of 5-6 animals. At a specified time after dosing, the animals were anesthetized with CO2 gas, sacrificed by cervical dislocation, testes were excised, capsules were removed, and the tissue was weighed. Two volumes (w/v) of 0.05 M potassium phosphate buffer, pH 7.2, was added to the rat testes tissue on ice, and 11 volumes (w/v) of the same buffer were added to the mouse testes. Tissue was then homogenized using 20 strokes with a Dounce homogenizer equipped with a tight pestle. Homogenized tissue was centrifuged at 800 x G then at 10,000 x G for 15 minutes each. Supernatant was decanted, reserved, and kept chilled on ice. Assays for lyase activity contained the same buffer and NADPH regenerating system described above and also contained […] of 10,000 x G supernatant which was diluted 3-fold resulting in a 5-fold dilution overall in the final assay volume. Substrate, 17α-hydroxyprogesterone plus 1,3-[^3H]-17α-hydroxyprogesterone (40-57 mCi/mmole; 0.18 µCi per assay) to yield a final concentration of 0.1 µM, (=Km) was added to the remaining assay components after a 5 minute equilibration a 20°C of the latter. The total assay volume was 200 µL. Activity was assayed for 20 seconds at 20°C. Assays were terminated, extracted and analyzed as described above except that carrier steroids were 17α-hydroxyprogesterone, androst-4-ene-dione, and testosterone. The organic phase containing the steroids was evaporated using nitrogen gas, the residues dissolved in 18% tetrahydrofuran (v/v) in hexane, and the steroid substrate, 17α-hydroxyprogesterone, and products (AED, TEST) were separated by HPLC on a Si60 (5 µm) column (250 x 4 mm) using 20% (v/v) tetrahydrofuran (THF) in hexane for 20 minutes then ramping to 60% THF (v/v) for 11 minutes. Activity of test compound was expressed as percent inhibition relative to the control and was the mean of each group of treated animals.
smiles,measurement,setting,value
"CC12CCC3C(CC[C@H]4NC(=O)CCC34C)C1CC[C@@H]2OC1CC1 (stereo partly drawn) [MDL 103,432, 17β-Cyclopropyloxy-4-aza-5α-androstan-3-one]",inhibition at 50 mg/kg,"po, 50 mg/kg p.o., 4 hr after dosing",66.4%
same,inhibition at 50 mg/kg,"po, 50 mg/kg p.o., 24 hr after dosing",52.7%
same,inhibition at 50 mg/kg,"sc, 50 mg/kg s.c., 4 hr after dosing",32.9%
same,inhibition at 50 mg/kg,"sc, 50 mg/kg s.c., 24 hr after dosing",40.7%
